Test [1] deals with KRAS G12A NSCLC CDX model NCI-H2009. Kind of test: In vivo CDX xenograft efficacy, NCI-H2009. On the set-up: species or system Balb/c nude mice. The following applies: oral. On the procedure: (§1) The vehicle/control article, 0.5% Methyl Cellulose & 0.1% Tween 80 or 100 mM acetic acid in deionized water with pH adjustment to 4.8-5.0, was prepared and stored under ambient conditions throughout the study period.
(§2) The test article, compound 1, was freshly prepared in vehicle of 0.5% Methyl Cellulose & 0.1% Tween 80 weekly and stored under ambient conditions. The combination agent, compound 2, was freshly prepared in vehicle of 100 mM acetic buffer weekly and stored under ambient conditions.
(§3) Female Balb/c nude mice were purchased from the Beijing Vital River Laboratory Animal Technology Co., Ltd. Mice were hosted at special pathogen-free (SPF) environment of vivarium facility and acclimated to their new environment for at least 3 days prior to initiation of any experiments. Mice were between 6-8 weeks of age at the time of implantation.
(§4) NCI-H2009 is a human NSCLC cell line that harbored a KRAS^G12A mutation. The NCI-H2009 cell line was purchased from the American Type Culture Collection (ATCC® CRL-5911). NCI-H2009 cells were cultured in medium containing RPMI-1640 plus 10% Fetal Bovine Serum (FBS) and supplemented with Glutamax and pyruvate at 37° C. in an atmosphere of 5% CO2 in air. NCI-H2009 cells in 100 μL cell suspensions containing 5×10^6 cells mixed with 50% Matrigel were implanted into mice subcutaneously. When tumor volumes reached a mean of 200 mm^3, tumor-bearing mice were randomized into different groups with 8 mice in each group and treatment started on the day of randomization.
(§5) Mice were dosed by oral administration of vehicle control solution, compound 1, or compound 2 in monotherapy treatment groups. Mice were dosed by oral administration of combinations, including compound 1 with compound 2. The dosing volume was 5 mL/kg for each compound and interval of BID regimen was 8 hours. In the combination of compound 1 with compound 2, compound 1 was dosed at one-hour post compound 2 QD or first BID dose. […] The study was terminated at the end of 4-week treatment or when tumor volume in vehicle control group reached 2,000 mm^3.

In test [2] the test system is KRAS G12V NSCLC CDX model NCI-H441. The test is described as follows: In vivo CDX xenograft efficacy, NCI-H441. On the set-up: species or system Balb/c nude mice. As to conditions: oral. As for the experimental part: as §1, §2, §3
as §4, with “NCI-H441” for “NCI-H2009”, “harbors” for “harbored”, “KRAS^G12V” for “KRAS^G12A”, “HTB-174™). NCI-H441” for “CRL-5911). NCI-H2009”, “(FBS),” for “(FBS) and supplemented with Glutamax and pyruvate”, “200” for “100”
as §5

Consider `Cc1cnc(NC2CCOCC2)nc1-n1cnc(C(=O)N[C@H](CN)c2cc(F)cc(Cl)c2)c1` [Compound 1, (S)—N-(2-amino-1-(3-chloro-5-fluorophenyl)ethyl)-1-(5-methyl-2-((tetrahydro-2H-pyran-4-yl)amino)pyrimidin-4-yl)-1H-imidazole-4-carboxamide], for which the TGI in test [1] (monotherapy 30 mg/kg BID) was 93%; in test [2] (monotherapy 30 mg/kg BID) it was 115%; in test [2] (monotherapy 30 mg/kg QD), 94%.
For `COCOC[C@H]1C[C@H]2COc3c(Sc4cnc(N5CCC6(CC5)CO[C@@H](C)[C@H]6N)c(CO)n4)ccnc3N2C1` [Compound 2, (3-((3S,4S)-4-amino-3-methyl-2-oxa-8-azaspiro[4.5]decan-8-yl)-6-(((6aS,8S)-8-((methoxymethoxy)methyl)-6a,7,8,9-tetrahydro-6H-pyrido[3,2-b]pyrrolo[1,2-d][1,4]oxazin-4-yl)thio)pyrazin-2-yl)methanol], the TGI in test [1] (monotherapy 15 mg/kg QD) was determined as 73%; in test [1] (monotherapy 30 mg/kg QD), 90%; in test [2] (monotherapy 15 mg/kg QD), 87%; in test [2] (monotherapy 30 mg/kg QD), 101%.

Source of the values: patent publication US20240299388A1, “ERK1/2 AND SHP2 INHIBITORS COMBINATION THERAPY” (Erasca, Inc., priority 2021, published 2024).
